Test results from patent US7763615B2, “Ecteinascidin analogs for use as antitumour agents” (priority 2001, dated 2010).
Like-named read-outs stand apart in the source and are kept apart here.

Assays:
Type in all cases: cell-based
[1] = system: A549; experiment: cells; conditions: for GI50: read-out: GI50; for IC (TGI): read-out: TGI
Source text: (§1) The finality of these assays is to interrupt the growth of a “in vitro” tumor cell culture by means of a continued exhibition of the cells to the sample to be testing.
(§2) A colorimetric type of assay, using sulphorhodamine B (SRB) reaction has been adapted for a quantitative measurement of cell growth and viability [following the technique described by Philip Skehan, et al. (1990), New colorimetric cytotoxicity assay for anticancer drug screening, J. Natl. Cancer Inst., 82:1107-1112]
(§3) This form of the assay employs 96 well cell culture microplates of 9 mm diameter (Faircloth, 1988; Mosmann, 1983). Most of the cell lines are obtained from American Type Culture Collection (ATCC) derived from different human cancer types.
(§4) Cells are maintained in RPMI 1640 10% FBS, supplemented with 0.1 g/l penicillin and 0.1 g/l streptomycin sulphate and then incubated at 37° C., 5% CO2 and 98% humidity. For the experiments, cells were harvested from subconfluent cultures using trypsin and resuspended in fresh medium before plating.
(§5) Cells are seeded in 96 well microtiter plates, at 5×10^3 cells per well in aliquots of 195 μl medium, and they are allowed to attach to the plate surface by growing in drug free medium for 18 hours. Afterward, samples are added in aliquots of 5 μl in a ranging from 10 to 10^−8 μg/ml, dissolved in DMSO/EtOH/PBS (0.5:0.5:99). After 48 hours exposure, the antitumor effect are measured by the SRB methodology: cells are fixed by adding 50 μl of cold 50% (wt/vol) trichloroacetic acid (TCA) and incubating for 60 minutes at 4° C. Plates are washed with deionized water and dried. One hundred μl of SRB solution (0.4% wt/vol in 1% acetic acid) is added to each microtiter well and incubated for 10 minutes at room temperature. Unbound SRB is removed by washing with 1% acetic acid. Plates are air dried and bound stain is solubilized with Tris buffer. Optical densities are read on a automated spectrophotometric plate reader at a single wavelength of 490 nm.
(§6) The values for mean+/− SD of data from triplicate wells are calculated. Some parameters for cellular responses can be calculated: GI=growth inhibition, TGI=total growth inhibition (cytostatic effect) and LC=cell killing (cytotoxic effect).

[2] = system: HT29; experiment: cells
Source text: as §1, §2, §3, §4, §5, §6

[3] = system: H-MEC-1; experiment: Inhibition of cells growth by colorimetric assay (SRB), H-MEC-1; conditions: Homo sapiens, H-MEC-1, 48 hours exposure, SRB; for GI50 / IC (TGI): HMEC-1, 48 h; for CC50: HMEC-1, read-out: LC50 (the source's name)
Source text: as §1, §2, §3, §4, §5, §6

[4] = Homo sapiens, A549, 48 h, A549, 48 hours exposure, SRB, read-out: LC50 (the source's name)
[5] = Homo sapiens, HT-29, 48 h, HT29, 48 hours exposure, SRB
[6] = Homo sapiens, HT-29, 48 h, HT29, 48 hours exposure, SRB, read-out: LC50 (the source's name)
[7] = Homo sapiens, A549, 48 h, A549, 48 hours exposure, SRB

SMILES	TGI ([1]; A549, 48 hours exposure, SRB) [Molar]	GI50 ([1]; A549, 48 hours exposure, SRB) [µM]	CC50 [1, 4] [µM]	GI50 [2, 5] [µM]	IC (TGI) [2, 5] [µM]	CC50 [2, 6] [µM]	CC50 ([1]; A549, 48 hours exposure, SRB, read-out: LC50 (the source's name)) [µM]	GI50 ([2]; HT29, 48 hours exposure, SRB) [µM]	TGI ([2]; HT29, 48 hours exposure, SRB) [Molar]	CC50 ([2]; HT29, 48 hours exposure, SRB, read-out: LC50 (the source's name)) [µM]	GI50 [1, 7] [µM]	IC (TGI) [1, 7] [µM]	CC50 ([1]; Homo sapiens, A549, 48 h, read-out: LC50, A549, 48 hours exposure, SRB) [µM]	CC50 ([2]; Homo sapiens, HT-29, 48 h, read-out: LC50, HT29, 48 hours exposure, SRB) [µM]	GI50 [3] [µM]	IC (TGI) [3] [µM]	CC50 [3] [µM]
COc1c(C)cc2c(c1O)[C@@H]1C3[C@@H]4SC[C@]5(NC(C)Cc6c5[nH]c5ccccc65)C(=O)COC[C@@H](c5c6c(c(C)c(OC(C)=O)c54)OCO6)N3[C@@H](C#N)[C@H](C2)N1C (stereo partly drawn) [Compound 18]	1.29E−07	0.00677	12.9	0.00562	0.129	12.9	–	–	–	–	–	–	–	–	–	–	–
COc1c(C)cc2c(c1O)[C@@H]1C3[C@@H]4SC[C@]5(NC(C)Cc6c5[nH]c5ccccc65)C(=O)COC[C@@H](c5c6c(c(C)c(OC(C)=O)c54)OCO6)N3[C@@H](C#N)[C@H](C2)N1C (stereo partly drawn) [Compound 19]	1.29E−08	0.00327	–	–	–	–	12.9	0.00445	1.29E−07	12.9	–	–	–	–	–	–	–
CCCC(=O)Oc1c(OC)c(C)cc2c1[C@@H]1C3[C@@H]4SC[C@]5(NCCc6c5[nH]c5ccccc65)C(=O)COC[C@@H](c5c6c(c(C)c(OC(C)=O)c54)OCO6)N3[C@@H](C#N)[C@H](C2)N1C (stereo partly drawn) [Compound 20]	–	–	6.77	0.596	12	12	–	–	–	–	0.33	1.2	–	–	–	–	–
COc1c(C)cc2c(c1OC(=O)OC(C)(C)C)[C@@H]1C3[C@@H]4SC[C@]5(NCCc6c5[nH]c5ccccc65)C(=O)COC[C@@H](c5c6c(c(C)c(OC(C)=O)c54)OCO6)N3[C@@H](C#N)[C@H](C2)N1C (stereo partly drawn) [Compound 21]	–	–	11.6	1.18	11.6	11.6	–	–	–	–	0.758	6.99	–	–	–	–	–
C=COC(=O)Oc1c(OC)c(C)cc2c1[C@@H]1C3[C@@H]4SC[C@]5(NCCc6c5[nH]c5ccccc65)C(=O)COC[C@@H](c5c6c(c(C)c(OC(C)=O)c54)OCO6)N3[C@@H](C#N)[C@H](C2)N1C (stereo partly drawn) [Compound 22]	–	–	12	0.12	5.7	12	–	–	–	–	0.0393	0.12	–	–	–	–	–
C=COC(=O)Oc1c(OC)c(C)cc2c1[C@@H]1C3[C@@H]4SC[C@]5(C(=O)COC[C@@H](c6c7c(c(C)c(OC(C)=O)c64)OCO7)N3[C@@H](C#N)[C@H](C2)N1C)c1[nH]c2ccccc2c1CCN5C(=O)OC=C (stereo partly drawn) [Compound 23]	–	–	–	0.247	11.1	–	–	–	–	–	0.118	1.26	11.1	11.1	–	–	–
C=CCOc1c(OC)c(C)cc2c1[C@@H]1C3[C@@H]4SC[C@]5(NCCc6c5[nH]c5ccccc65)C(=O)COC[C@@H](c5c6c(c(C)c(OC(C)=O)c54)OCO6)N3[C@@H](C#N)[C@H](C2)N1C (stereo partly drawn) [Compound 24]	–	–	12.4	12.4	12.4	12.4	–	–	–	–	12.4	12.4	–	–	–	–	–
C=CCOc1c(OC)c(C)cc2c1[C@@H]1C3[C@@H]4SC[C@]5(C(=O)COC[C@@H](c6c7c(c(C)c(OC(C)=O)c64)OCO7)N3[C@@H](C#N)[C@H](C2)N1C)c1[nH]c2ccccc2c1CCN5CC=C (stereo partly drawn) [Compound 25]	–	–	11.8	11.8	11.8	11.8	–	–	–	–	11.8	11.8	–	–	–	–	–
C=CCOc1c(OC)c(C)cc2c1[C@@H]1C3[C@@H]4SC[C@]5(C(=O)COC[C@@H](c6c7c(c(C)c(OC(C)=O)c64)OCO7)N3[C@@H](O)[C@H](C2)N1C)c1[nH]c2ccccc2c1CCN5CC=C (stereo partly drawn) [Compound 49]	–	–	9.37	4.5	12.6	12.6	–	–	–	–	2.64	4.97	–	–	1.99	4.12	8.54
CCCC(=O)Oc1c(C)c2c(c3c1[C@H]1SC[C@]4(NCCc5c4[nH]c4ccccc54)C(=O)COC[C@@H]3N3C1[C@H]1c4c(cc(C)c(OC)c4O)C[C@@H]([C@@H]3C#N)N1C)OCO2 (stereo partly drawn) [Compound 52]	–	–	943	0.0793	12.6	12.6	–	–	–	–	0.047	0.126	–	–	0.347	0.00695	0.0126
COc1c(C)cc2c(c1O)[C@@H]1C3[C@@H]4SC[C@]5(NCCc6c5[nH]c5ccccc65)C(=O)COC[C@@H](c5c6c(c(C)c(OC(=O)CCCl)c54)OCO6)N3[C@@H](C#N)[C@H](C2)N1C (stereo partly drawn) [Compound 53]	–	–	12.2	0.309	1.23	12.3	–	–	–	–	0.261	0.784	–	–	0.132	12.3	12.3
COc1c(C)cc2c(c1O)[C@@H]1C3[C@@H]4SC[C@]5(NCCc6c5[nH]c5ccccc65)C(=O)COC[C@@H](c5c6c(c(C)c(OC(=O)C(F)(F)F)c54)OCO6)N3[C@@H](C#N)[C@H](C2)N1C (stereo partly drawn) [Compound 56]	–	–	3.79	0.0474	12.2	12.2	–	–	–	–	0.0093	0.236	–	–	0.00417	0.00965	0.378
COc1c(C)cc2c(c1OC(=O)OC(C)(C)C)[C@@H]1C3[C@@H]4SC[C@]5(NCCc6c5[nH]c5ccccc65)C(=O)COC[C@@H](c5c6c(c(C)c(OC(=O)OC(C)(C)C)c54)OCO6)N3[C@@H](C#N)[C@H](C2)N1C (stereo partly drawn) [Compound 58]	–	–	10.8	0.23	10.8	10.8	–	–	–	–	0.0891	1.34	–	–	0.0102	10.8	10.8
C=COC(=O)Oc1c(C)c2c(c3c1[C@H]1SC[C@]4(NCCc5c4[nH]c4ccccc54)C(=O)COC[C@@H]3N3C1[C@H]1c4c(cc(C)c(OC)c4O)C[C@@H]([C@@H]3C#N)N1C)OCO2 (stereo partly drawn) [Compound 59]	–	–	4.98	0.0038	0.0184	12.6	–	–	–	–	0.00266	2.26	–	–	0.004	0.0126	12.6
